Test results reported in patent EP3623369A1, “NOVEL MORPHOLINYL AMINE COMPOUNDS FOR THE TREATMENT OF AUTOIMMUNE DISEASE” (F. Hoffmann-La Roche AG, priority 2018, dated 2020).
Values belong to the compound of their own block, whether it stands above or below them.

Target: T1, human TLR8 (Homo sapiens, UniProt Q9NR97)
T1 sequence (Q9NR97 27-1041): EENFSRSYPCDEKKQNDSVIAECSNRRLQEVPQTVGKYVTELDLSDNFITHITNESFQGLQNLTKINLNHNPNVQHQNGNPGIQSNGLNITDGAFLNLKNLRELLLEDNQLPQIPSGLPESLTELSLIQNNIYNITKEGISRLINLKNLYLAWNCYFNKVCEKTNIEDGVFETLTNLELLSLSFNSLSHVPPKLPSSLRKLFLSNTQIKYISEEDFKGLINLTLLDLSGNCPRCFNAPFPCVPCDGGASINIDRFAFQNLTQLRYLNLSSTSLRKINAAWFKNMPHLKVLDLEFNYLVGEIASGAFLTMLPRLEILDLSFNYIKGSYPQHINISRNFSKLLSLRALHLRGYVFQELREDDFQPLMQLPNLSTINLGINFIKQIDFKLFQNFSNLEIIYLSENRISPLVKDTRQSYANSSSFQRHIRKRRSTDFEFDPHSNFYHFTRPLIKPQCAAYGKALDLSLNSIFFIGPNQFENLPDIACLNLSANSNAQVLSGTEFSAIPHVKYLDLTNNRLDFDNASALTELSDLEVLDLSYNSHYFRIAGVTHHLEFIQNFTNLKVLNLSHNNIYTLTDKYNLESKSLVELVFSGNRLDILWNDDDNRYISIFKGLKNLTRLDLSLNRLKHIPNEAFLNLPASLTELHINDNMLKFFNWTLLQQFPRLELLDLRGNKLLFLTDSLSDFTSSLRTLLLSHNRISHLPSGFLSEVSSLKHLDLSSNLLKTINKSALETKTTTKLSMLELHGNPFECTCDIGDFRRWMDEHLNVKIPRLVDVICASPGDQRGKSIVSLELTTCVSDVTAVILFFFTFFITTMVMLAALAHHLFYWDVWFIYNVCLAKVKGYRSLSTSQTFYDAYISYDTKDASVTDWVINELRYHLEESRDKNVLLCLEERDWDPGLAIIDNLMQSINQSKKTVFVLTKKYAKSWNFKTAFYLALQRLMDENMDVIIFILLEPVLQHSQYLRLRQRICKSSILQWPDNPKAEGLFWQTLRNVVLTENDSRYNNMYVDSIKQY
Test: HEK293-Blue-hTLR-8 cells assay (SEAP reporter, R848 stimulation)
Assay type: cell-based
Conditions: HEK293-Blue-hTLR8 cells, R848, 20 hrs; 0.003 is the lowest tested concentration; read-out: HEK/hTLR8 IC50
Procedure: The following tests were carried out in order to determine the activity of the compounds of formula (I) or (Ia) in HEK293-Blue-hTLR-7/8/9 cells assay.
HEK293-Blue-hTLR-8 cells assay:
A stable HEK293-Blue-hTLR-8 cell line was purchased from InvivoGen (Cat.#: hkb-htlr8, San Diego, California, USA). These cells were originally designed for studying the stimulation of human TLR8 by monitoring the activation of NF-κB. A SEAP (secreted embryonic alkaline phosphatase) reporter gene was placed under the control of the IFN-β minimal promoter fused to five NF-κB and AP-1-binding sites. The SEAP was induced by activating NF-κB and AP-1 via stimulating HEK-Blue hTLR8 cells with TLR8 ligands. Therefore the reporter expression was declined by TLR8 antagonist under the stimulation of a ligand, such as R848, for incubation of 20 hrs. The cell culture supernatant SEAP reporter activity was determined using QUANTI-Blue™ kit (Cat.#: rep-qb1, Invivogen, San Diego, Ca, USA) at a wavelength of 640 nm, a detection medium that turns purple or blue in the presence of alkaline phosphatase.
HEK293-Blue-hTLR8 cells were incubated at a density of 250,000∼450,000 cells/mL in a volume of 170 µL in a 96-well plate in Dulbecco's Modified Eagle's medium (DMEM) containing 4.5 g/L glucose, 50 U/mL penicillin, […], […], 2 mM L-glutamine, 10% (v/v) heat-inactivated fetal bovine serum with addition of 20 µL test compound in a serial dilution in the presence of final DMSO at 1% and 10 µL of 60uM R848 in above DMEM, perform incubation under 37 °C in a CO2 incubator for 20 hrs. Then 20 µL of the supernatant from each well was incubated with 180 µL Quanti-blue substrate solution at 37°C for 2 hrs and the absorbance was read at 620∼655 nm using a spectrophotometer. The signalling pathway that TLR8 activation leads to downstream NF-κB activation has been widely accepted, and therefore similar reporter assay was modified for evaluating TLR8 antagonist.

IC50: 6 nM
Compound: C[C@@H]1CN(c2ccc3c(c2)CN(C[C@H]2CN(c4ccc(C#N)c5ncccc45)C[C@@H](C)O2)C3)C[C@H](C)N1 [Example 71, 5-[(2R,6S)-2-methyl-6-[[5-[(3R,5S)-3,5-dimethylpiperazin-1-yl]isoindolin-2-yl]methyl]morpholin-4-yl]quinoline-8-carbonitrile]

IC50: 5 nM
Compound: C[C@@H]1CN(c2ccc(Cl)c3nccnc23)C[C@H](CN2CCc3cc(N4CCNCC4)ccc3C2)O1 [Example 34, (2R,6S)-4-(8-chloroquinoxalin-5-yl)-2-methyl-6-[(6-piperazin-1-yl-3,4-dihydro-1H-isoquinolin-2-yl)methyl]morpholine]

IC50: 22 nM
Compound: C[C@@H]1CN(c2ccc(C#N)c3nccnc23)C[C@H](CNCc2ccc(N3CCNCC3)cc2)O1 [Example 84, 8-[(2R,6S)-2-methyl-6-[[(4-piperazin-1-ylphenyl)methylamino]methyl]morpholin-4-yl]quinoxaline-5-carbonitrile]

IC50: 36 nM
Compound: COC(=O)C1CN(c2ccc3c(c2)CN(C[C@H]2CN(c4ccc(C#N)c5ncccc45)C[C@@H](C)O2)C3)CCN1 (stereo partly drawn) [Example 67, Methyl 4-[2-[[(2S,6R)-4-(8-cyano-5-quinolyl)-6-methyl-morpholin-2-yl]methyl]isoindolin-5-yl] piperazine-2-carboxylate]

IC50: 20 nM
Compound: C[C@@H]1CN(c2ccc(C#N)c3ncccc23)C[C@H](CN2Cc3ccc(N4CCNC[C@H]4CO)cc3C2)O1 [Example 83, 5-[(2S,6R)-2-[[5-[(2S)-2-(hydroxymethyl)piperazin-1-yl]isoindolin-2-yl]methyl]-6-methyl-morpholin-4-yl]quinoline-8-carbonitrile]

IC50: 6 nM
Compound: C[C@@H]1CN(c2ccc(C#N)c3ncccc23)C[C@H](CN2Cc3ccc(N4CCN[C@@H](C)C4)cc3C2)O1 [Example 64, 5-[(2R,6S)-2-methyl-6-[[5-[(3S)-3-methylpiperazin-1-yl]isoindolin-2-yl]methyl]morpholin-4-yl]quinoline-8-carbonitrile]

IC50: < 3 nM
Compound: C[C@@H]1CN(c2ccc(C#N)c3nccnc23)C[C@H](CN2Cc3cnc(N4CCNCC4)cc3C2)O1 [Example 60, 8-[(2R,6S)-2-methyl-6-[(6-piperazin-1-yl-1,3-dihydropyrrolo[3,4-c]pyridin-2-yl)methyl]morpholin-4-yl]quinoxaline-5-carbonitrile]

IC50: < 3 nM
Compound: CC1CN(c2ccc3c(c2)CN(C[C@H]2CN(c4ccc(C#N)c5nccnc45)C[C@@H](C)O2)C3)CCN1 (stereo partly drawn) [Example 36, 8-[(2R,6S)-2-methyl-6-[[5-(3-methylpiperazin-1-yl)isoindolin-2-yl]methyl]morpholin-4-yl]quinoxaline-5-carbonitrile]

The next lines start with the compound.

Compound: C[C@@H]1CN(c2ccc(C#N)c3nccnc23)C[C@H](CN2Cc3ccc(N4CCNCC4)cc3C2)O1 [Example 12, 8-[(2R,6S)-2-methyl-6-[(5-piperazin-1-ylisoindolin-2-yl)methyl]morpholin-4-yl]quinoxaline-5-carbonitrile]
IC50: < 3 nM

Compound: C[C@@H]1CN(c2ccc(C#N)c3nccnc23)C[C@H](CN2Cc3ccc(N4CCN(C5CC5)CC4)cc3C2)O1 [Example 35, 8-[(2S,6R)-2-[[5-(4-cyclopropylpiperazin-1-yl)isoindolin-2-yl]methyl]-6-methyl-morpholin-4-yl]quinoxaline-5-carbonitrile]
IC50: 9 nM

Compound: C[C@@H]1CN(c2ccc(C#N)c3ncsc23)C[C@H](CN2CCc3cc(N4CCNCC4)ccc3C2)O1 [Example 24, 7-[(2R,6S)-2-methyl-6-[(6-piperazin-1-yl-3,4-dihydro-1H-isoquinolin-2-yl)methyl]morpholin-4-yl]-1,3-benzothiazole-4-carbonitrile]
IC50: 4 nM

Compound: C[C@@H]1CN(c2ccc(C#N)c3ncccc23)C[C@H](CN2Cc3cc(N4CCNCC4)cc(F)c3C2)O1 [Example 59, 5-[(2S,6R)-2-[(4-fluoro-6-piperazin-1-yl-isoindolin-2-yl)methyl]-6-methyl-morpholin-4-yl]quinoline-8-carbonitrile]
IC50: < 3 nM

Compound: C[C@@H]1CN(c2ccc(C#N)c3ncccc23)C[C@H](CN2Cc3cnc(N4CCNCC4)cc3C2)O1 [Example 61, 5-[(2R,6S)-2-methyl-6-[(6-piperazin-1-yl-1,3-dihydropyrrolo[3,4-c]pyridin-2-yl)methyl]morpholin-4-yl]quinoline-8-carbonitrile]
IC50: < 3 nM

Compound: C[C@@H]1CN(c2ccc(Cl)c3ncccc23)C[C@H](CN2CCc3cc(N4CCNCC4)ccc3C2)O1 [Example 32, (2R,6S)-4-(8-chloro-5-quinolyl)-2-methyl-6-[(6-piperazin-1-yl-3,4-dihydro-1H-isoquinolin-2-yl)methyl]morpholine]
IC50: 17 nM

Compound: C[C@@H]1CN(c2ccc(C#N)n3nccc23)C[C@H](CN2CCc3ccc(N4CCNCC4)cc3C2)O1 [Example 11, 4-[(2R,6S)-2-methyl-6-[(7-piperazin-1-yl-3,4-dihydro-1H-isoquinolin-2-yl)methyl]morpholin-4-yl]pyrazolo[1,5-a]pyridine-7-carbonitrile]
IC50: 229 nM

Compound: C[C@@H]1CN(c2ccc(C#N)c3ncccc23)C[C@H](CN2Cc3ccc(N4CCNC[C@@H]4CO)cc3C2)O1 [Example 82, 5-[(2S,6R)-2-[[5-[(2R)-2-(hydroxymethyl)piperazin-1-yl]isoindolin-2-yl]methyl]-6-methyl-morpholin-4-yl]quinoline-8-carbonitrile]
IC50: 14 nM

Compound: C[C@@H]1CN(c2ccc(C#N)c3ncccc23)C[C@H](CN2Cc3ccc(N4CC5(CNC5)C4)cc3C2)O1 [Example 47, 5-[(2S,6R)-2-[[5-(2,6-diazaspiro[3.3]heptan-2-yl)isoindolin-2-yl]methyl]-6-methyl-morpholin-4-yl]quinoline-8-carbonitrile]
IC50: 23 nM

Compound: COCCN1CCN(c2ccc3c(c2)CN(C[C@H]2CN(c4ccc(C#N)c5nccnc45)C[C@@H](C)O2)C3)CC1 [Example 37, 8-[(2S,6R)-2-[[5-[4-(2-methoxyethyl)piperazin-1-yl]isoindolin-2-yl]methyl]-6-methyl-morpholin-4-yl]quinoxaline-5-carbonitrile]
IC50: 9 nM

Compound: C[C@@H]1CN(c2ccc(C#N)n3nccc23)C[C@H](CN2Cc3ccc(OCCN(C)C)cc3C2)O1 [Example 28, 4-[(2S,6R)-2-[[5-[2-(dimethylamino)ethoxy]isoindolin-2-yl]methyl]-6-methyl-morpholin-4-yl]pyrazolo[1,5-a]pyridine-7-carbonitrile]
IC50: 58 nM

Compound: C[C@@H]1CN(c2ccc(C#N)c3ncsc23)C[C@H](CN2Cc3cc(N4CCNCC4)cnc3C2)O1 [Example 25, 7-[(2R,6S)-2-methyl-6-[(3-piperazin-1-yl-5,7-dihydropyrrolo[3,4-b]pyridin-6-yl)methyl]morpholin-4-yl]-1,3-benzothiazole-4-carbonitrile]
IC50: < 3 nM

Compound: C[C@@H]1CN(c2ccc(C#N)n3ncc(F)c23)C[C@H](CN2Cc3cc(N4CCNCC4)cnc3C2)O1 [Example 29, 3-fluoro-4-[(2R,6S)-2-methyl-6-[(3-piperazin-1-yl-5,7-dihydropyrrolo[3,4-b]pyridin-6-yl)methyl]morpholin-4-yl]pyrazolo[1,5-a]pyridine-7-carbonitrile]
IC50: 14 nM
